Measurements as given in US20040053896A1, “Pharmaceutically active compound” (priority 2000, published 2004).
Like-named read-outs stand apart in the source and are kept apart here.

What was measured:
HepG2 cells = assay: In vitro toxicity test by in situ end labelling (ISEL), % of dead cells; type: cell-based; details: 4 h incubation
Method: Cholyl-lysyl-doxorubicin (VIII) synthesised as described above was subjected to cytotoxicity tests in comparison with free doxorubicin and free cholate using in situ end labelling which enables semi-quantitative measure of apoptosis and necrosis.
HepG2 cells (Cobra American Type Culture Collection) in 24 well plates were used. Doxorubicin, cholate or cholyllysyldoxorubicin (in various amounts up to 0.86 μM) was added in triplicate and incubated for 4 h. The cells were trypsinized off from the well plates, cytospun, and then frozen.
In order to measure cell viability, sections were warmed up to room temperature for 30 minutes, then fixed in acetone for 10 minutes, and then wax was introduced around cells.
An in situ end labelling (ISEL) positive mixture was made up which included buffer (1 ml), dATP (1 μl), dCTP (1 μl), dGTP (1 μl), DiglldUTP (1 μl) and Klenow DNA polymerase (4 μl), and an in situ end labelling negative mixture of buffer (1 ml), dATP (1 μl), dCTP (1 μl), dGTP (1 μl), Digll, 2dUTP and water. (4 μl) was also made up. To each cytospin and coverslip was added 60 μl of the ISEL positive mixture or negative mixture. These were then floated in a water bath at 37° C. for 1 h. The coverslips were then removed and washed 3×5 mins in distilled water, followed by washing in TBS pH 7.5 for 5 mins. Anti digoxigen Alkaline phosphatase diluted 1:200 TBS was added and incubated for 1 h at room temperature and then washed in TBS pH 7.5 for 2.5 mins, followed by further washing in TBS pH 8.2 for another 2.5 mins. A substrate mixture was then made up to include naphthol phosphate (10 mg), NN-dimethylformamide (1 ml), Tris pH 8.2 (49) IM Levamasole (50 μl) and Fast blue (50 mg).
The substrate mixture was added to each cytospin and allowed to develop for 15 mins followed by washing in distilled water and then mounted.

Solubility in solvents = type: physicochemical
[1] = Percentage of dose in liver, heart, urine and blood at 60 min
Method: Further tests were performed to estimate the percentage of the dose of the compounds being tested in the liver, heart, urine and blood of Wistar rats.

[2] = system: 12 human tumour cell lines; assay: Antiproliferative activity in vitro, propidium iodide DNA content; type: cell-based; details: for mean IC70: mean over 12 human tumour cell lines, 4 days continuous exposure
Method: Cholyl-lysyl-doxorubicin (VIII) was investigated for antiproliferative activity in vitro in 12 human tumour cell lines (including the large cell lung carcinoma H460, the mammary carcinoma cell line MCF7, the uterus carcinoma cell line UXF 1138L and the large cell lung carcinoma LXFL 529L), and was compared to free doxorubicin and cholic acid as controls. 5-20.000 cells/well were plated into 96 wells. After 24 hours, the compounds were added in dose levels ranging from 3 nM to 30 μM (cholyl-lysyl-doxorubicin and cholic acid) and from 0.3 nM to 3 μM (doxorubicin), respectively.

[3] = for Cumulative biliary excretion, Mean % Dose: Wistar rats; for Biliary excretion, mean % of radioactivity in the dose administered: bolus via jugular vein, 14C-Dox 1 mg/300 μl or 14C-Cpd VIII 2 mg/300 μl, n=6
rat hepatocytes = assay: Cytotoxicity assay, chromium-51 leakage from monolayer cultures; type: cell-based; details: rat hepatocyte monolayers, 0.012M test material, mean +/- SD, n=5; control 37.61+/-1.56%
Method: Activities of supernatants and cells were measured. Chromium-51 leakage is expressed as a percentage of the total activity (medium+cells). Values are mean +/− SD [n=5]. *=P<0.001 CL(CBZ)/CL(CBZ)-Dox and a control (no material added after incubation with chromium-51).

[4] = Wistar rats, 60 min after injection

| SMILES | Mean % of dead cells (HepG2 cells; 0.03 μM) [%] | Mean % of dead cells (HepG2 cells; 0.06 μM) [%] | Mean % of dead cells (HepG2 cells; 0.12 μM) [%] | Mean % of dead cells (HepG2 cells; 0.45 μM) [%] | Mean % of dead cells (HepG2 cells; 0.86 μM) [%] | Percentage of dose at 60 min, Mean % dose, Urine [1, 4] [% dose] | mean IC70 [2] [nM] | Cumulative biliary excretion, Mean % Dose ([3]; cumulative to 0 min) [% Dose] | Cumulative biliary excretion, Mean % Dose ([3]; cumulative to 10 min) [% Dose] | Cumulative biliary excretion, Mean % Dose ([3]; cumulative to 20 min) [% Dose] | Cumulative biliary excretion, Mean % Dose ([3]; cumulative to 30 min) [% Dose] | Cumulative biliary excretion, Mean % Dose ([3]; cumulative to 40 min) [% Dose] | Cumulative biliary excretion, Mean % Dose ([3]; cumulative to 50 min) [% Dose] | Cumulative biliary excretion, Mean % Dose ([3]; cumulative to 60 min) [% Dose] | Biliary excretion, mean % of radioactivity in the dose administered ([3]; bile aliquot at 10 min) [%] | Biliary excretion, mean % of radioactivity in the dose administered ([3]; bile aliquot at 20 min) [%] | Biliary excretion, mean % of radioactivity in the dose administered ([3]; bile aliquot at 30 min) [%] | Biliary excretion, mean % of radioactivity in the dose administered ([3]; bile aliquot at 40 min) [%] | Biliary excretion, mean % of radioactivity in the dose administered ([3]; bile aliquot at 50 min) [%] | Biliary excretion, mean % of radioactivity in the dose administered ([3]; bile aliquot at 60 min) [%] | also measured |
| --- | --- | --- | --- | --- | --- | --- | --- | --- | --- | --- | --- | --- | --- | --- | --- | --- | --- | --- | --- | --- | --- |
| COc1cccc2c1C(=O)c1c(O)c3c(c(O)c1C2=O)C[C@@](O)(C(=O)CO)C[C@@H]3O[C@H]1C[C@H](NC(=O)[C@H](CCCCN)NC(=O)CC[C@@H](C)[C@H]2CC[C@H]3[C@@H]4[C@H](O)C[C@@H]5C[C@H](O)CC[C@]5(C)[C@H]4C[C@H](O)[C@]23C)[C@H](O)[C@H](C)O1 [Compound (VIII), Cholyl-Lysyl-Doxorubicin] | 7.6 | 10.8 | 20.5 | 49 | 96.6 | 2.2 | 1300 | 0 | 41.7 | 61.7 | 69.7 | 75.3 | 79.3 | 81.8 | 41.7 | 20 | 8 | 5.6 | 4 | 2.5 | Mean % of dead cells (HepG2 cells; 0.00 μM): 3.3%; Solubility in non-polar solvents (Solubility in solvents; non-polar solvents such as ethoxyethane): insoluble; Solubility in water, methanol and ethanol (Solubility in solvents; water, methanol and ethanol): soluble; Percentage of dose at 60 min, Mean % dose, Blood ([1]; Wistar rats, blood, 60 min after injection): 8.9 % dose; Percentage of dose at 60 min, Mean % dose, Heart ([1]; Wistar rats, heart, 60 min after injection): 0 % dose; Percentage of dose at 60 min, Mean % dose, Liver ([1]; Wistar rats, liver, 60 min after injection): 14.7 % dose; Percentage of dose at 60 min, Mean % dose, Total ([1]; Wistar rats, sum of liver, heart, urine and blood, 60 min): 25.8 % dose; Biliary excretion, mean % of radioactivity in the dose administered ([3]; time 0 min): 0% |
| COc1cccc2c1C(=O)c1c(O)c3c(c(O)c1C2=O)C[C@@](O)(C(=O)CO)C[C@@H]3O[C@H]1C[C@H](N)[C@H](O)[C@H](C)O1 [Doxorubicin, doxorubicin] | 9.4 | 14.9 | 28.9 | 50 | 100 | 4 | 700 | 0 | 2.3 | 7 | 9.6 | 11.7 | 12.7 | 13.5 | 2.3 | 4.7 | 2.6 | 2.4 | 1 | 0.8 | Percentage of dose at 60 min, Mean % dose, Blood ([1]; Wistar, rat, in vivo, 60 min): 74.7 % dose; Percentage of dose at 60 min, Mean % dose, Heart ([1]; Wistar, rat, in vivo, 60 min): 10.8 % dose; Percentage of dose at 60 min, Mean % dose, Liver ([1]; Wistar, rat, in vivo, 60 min): 1.9 % dose; Biliary excretion, mean % of radioactivity in the dose administered ([3]; time 0 min): 0% |
| CC(CCC(=O)NC(CCCCNC(=O)OCc1ccccc1)C(=O)O)C1CCC2C3C(O)CC4CC(O)CCC4(C)C3CC(O)C12C (centres unmarked) [CL(CBZ), Cholyllsine-N-ε-CBZ] |  |  |  |  |  |  |  |  |  |  |  |  |  |  |  |  |  |  |  |  | Chromium-51 leakage as a percentage of the total activity (medium+cells) (rat hepatocytes): 49.01+/−2.57% |
| COc1cccc2c1C(=O)c1c(O)c3c(c(O)c1C2=O)CC(O)(C(=O)CO)CC3OC1CC(NC(=O)C(CCCCNC(=O)OCc2ccccc2)NC(=O)CCC(C)C2CCC3C4C(O)CC5CC(O)CCC5(C)C4CC(O)C23C)C(O)C(C)O1 (centres unmarked) [CL(CBZ)-Dox, CholyllysylCBZDoxorubicin] |  |  |  |  |  |  |  |  |  |  |  |  |  |  |  |  |  |  |  |  | Chromium-51 leakage as a percentage of the total activity (medium+cells) (rat hepatocytes): 36.45+/−3.77% |
| C[C@H](CCC(=O)O)[C@H]1CC[C@H]2[C@@H]3[C@H](O)C[C@@H]4C[C@H](O)CC[C@]4(C)[C@H]3C[C@H](O)[C@]12C [Cholate, cholic acid] | 1 | 0 | 1.8 |  | 1 |  |  |  |  |  |  |  |  |  |  |  |  |  |  |  | antitumour activity in vitro ([2]; 12 human tumour cell lines, 3 nM to 30 μM, 4 days exposure): no antitumour activity |
